The source of these data is US11976064B2, “Toll-like receptor agonists” (Pfizer Inc., priority 2019, dated 2024).

One may read the EC50 as the concentration giving half of the maximal effect. Low values mean greater potency, high ones weaker potency.

For assay [1], the target named is T1, human toll like receptor 7 (hTLR7) (Homo sapiens, UniProt Q9NYK1).
T1 construct: host or cells: HEK293 (HEK-Blue hTLR7)
T1 sequence (Q9NYK1 27-1049): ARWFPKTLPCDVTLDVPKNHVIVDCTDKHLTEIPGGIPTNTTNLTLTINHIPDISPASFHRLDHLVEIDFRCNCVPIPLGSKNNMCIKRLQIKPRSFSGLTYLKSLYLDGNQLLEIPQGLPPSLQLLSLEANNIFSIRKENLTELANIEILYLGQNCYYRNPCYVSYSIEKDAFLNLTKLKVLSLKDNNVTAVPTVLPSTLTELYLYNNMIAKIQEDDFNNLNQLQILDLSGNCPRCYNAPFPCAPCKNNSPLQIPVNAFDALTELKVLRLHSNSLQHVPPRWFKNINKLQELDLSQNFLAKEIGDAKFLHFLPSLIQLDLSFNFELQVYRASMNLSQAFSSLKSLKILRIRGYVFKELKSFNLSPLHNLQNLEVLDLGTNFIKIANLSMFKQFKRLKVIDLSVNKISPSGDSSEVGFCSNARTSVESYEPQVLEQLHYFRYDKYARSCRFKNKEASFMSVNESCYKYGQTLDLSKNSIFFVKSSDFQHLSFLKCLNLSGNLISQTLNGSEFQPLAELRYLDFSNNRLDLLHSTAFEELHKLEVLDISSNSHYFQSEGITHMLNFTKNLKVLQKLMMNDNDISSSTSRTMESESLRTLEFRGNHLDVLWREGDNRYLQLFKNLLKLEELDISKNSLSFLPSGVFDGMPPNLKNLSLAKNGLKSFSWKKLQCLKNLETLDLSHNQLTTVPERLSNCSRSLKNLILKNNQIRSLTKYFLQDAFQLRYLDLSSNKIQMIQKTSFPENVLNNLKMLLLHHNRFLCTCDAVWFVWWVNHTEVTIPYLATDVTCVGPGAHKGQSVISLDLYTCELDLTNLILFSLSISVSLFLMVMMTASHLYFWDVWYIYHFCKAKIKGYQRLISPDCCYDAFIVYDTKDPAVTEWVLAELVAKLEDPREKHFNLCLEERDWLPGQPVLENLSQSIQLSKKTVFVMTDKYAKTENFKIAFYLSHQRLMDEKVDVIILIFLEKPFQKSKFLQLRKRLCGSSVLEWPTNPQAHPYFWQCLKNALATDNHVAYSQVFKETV
Nature of the assay: hTLR7 cell functional assay (HEK-Blue hTLR7 SEAP reporter). The class given is cell-based. The settings on record: HEK293 cells stably overexpressing hTLR7, SEAP reporter; geometric mean when tested more than once. On the procedure: (§1) The Examples described were tested for biological activity in functional cellular assays using HEK293 cells stably overexpressing human TLR7 or TLR8. The assays tested for the ability of each Example to stimulate secretion of interferon alpha (IFNα) in human primary blood mono nuclear cells (PBMC).
(§2) To determine the ability of each Example to activate the human toll like receptor 7 (hTLR7) or human toll like receptor 8 (hTLR8), cell-based reporter systems were utilized. HEK293 cells stably overexpressing either hTLR7 or hTLR8 along with a reporter gene containing an optimized secreted embryonic alkaline phosphatase gene (SEAP), under the control of the IFN-b minimal promoter fused to five NF-κB and AP-1-binding sites, were obtained from Invivogen (HEK-Blue™ hTLR7, cat #Hkb-ht1r7; HEK-Blue™ hTLR8, cat #Hkb-ht1r8). Stimulation of hTLR7 or hTLR8 in these cells activates NF-κB and AP-1 and induces the production of SEAP which can be quantified using an alkaline phosphatase detection reagent.
(§3) Cells were maintained in Dulbecco's Modified Eagle Media (DMEM) (containing Fetal Bovine Serum (FBS) heat inactivated (10%), Glutamax (2 mM), Penicillin/Streptomycin, Blasticidin (10 μg/ml), Zeocin (100 μg/ml) and Normocin (100 μg/ml)). On day one of the assay, Examples were prepared using 11-point half-log serial dilutions from a 10mM DMSO stock solution and 50 nl was spotted into 384-well Viewplates (PerkinElmer, cat #6007480). Positive control TLR7/8 agonist and negative control (DMSO, no Example) were also spotted within the assay plate and were used to determine percent effect during the analysis process. After resuspension in DMEM assay media containing FBS heat inactivated (10%), Glutamax (2 mM) and Penicillin/Streptomycin, 10,000 cells/20 μl/well were added to previously prepared plates. Plates were incubated overnight (16-20 hrs) at 37° C. in a 5% CO2 environment. Prewetted Microclime lids (Labcyte, LLS-0310) were used to prevent evaporation. On day two of the assay, QUANTI-Blue™ detection reagent was prepared by reconstituting QUANTI-Blue™ powder (InvivoGen, Rep-qb1) with 100 ml of sterile water and allowed to equilibrate to 37° C. for 15 minutes. 20 μl of QUANTI-Blue™ detection reagent was added to each well and plates were incubated at room temperature for 180 min. At the end of the incubation, plates were read on an Envision (Perkin Elmer) plate reader capturing absorbance at 650 nm.
(§4) Using Positive (TLR7/8 agonist) and Negative (DMSO) controls, the percent (%) effect was calculated for each Example using the following equation: effect=100−[100*{(Example−Positive Control)/(Negative Control−Positive Control)}]
(§5) The % effect at each concentration of each Example was calculated utilizing the ABase software suite (IBDS) and was relative to the amount of SEAP produced in the positive and negative control wells contained within each assay plate. The concentrations and % effect values for each Example were fit using a 4-parameter logistic model in ABase and the concentration of each Example that produced 50% response (EC50) was calculated.

In assay [2] the target is T2, human toll like receptor 8 (hTLR8) (Homo sapiens, UniProt Q9NR97).
T2 construct: host or cells: HEK293 (HEK-Blue hTLR8)
T2 sequence (Q9NR97 27-1041): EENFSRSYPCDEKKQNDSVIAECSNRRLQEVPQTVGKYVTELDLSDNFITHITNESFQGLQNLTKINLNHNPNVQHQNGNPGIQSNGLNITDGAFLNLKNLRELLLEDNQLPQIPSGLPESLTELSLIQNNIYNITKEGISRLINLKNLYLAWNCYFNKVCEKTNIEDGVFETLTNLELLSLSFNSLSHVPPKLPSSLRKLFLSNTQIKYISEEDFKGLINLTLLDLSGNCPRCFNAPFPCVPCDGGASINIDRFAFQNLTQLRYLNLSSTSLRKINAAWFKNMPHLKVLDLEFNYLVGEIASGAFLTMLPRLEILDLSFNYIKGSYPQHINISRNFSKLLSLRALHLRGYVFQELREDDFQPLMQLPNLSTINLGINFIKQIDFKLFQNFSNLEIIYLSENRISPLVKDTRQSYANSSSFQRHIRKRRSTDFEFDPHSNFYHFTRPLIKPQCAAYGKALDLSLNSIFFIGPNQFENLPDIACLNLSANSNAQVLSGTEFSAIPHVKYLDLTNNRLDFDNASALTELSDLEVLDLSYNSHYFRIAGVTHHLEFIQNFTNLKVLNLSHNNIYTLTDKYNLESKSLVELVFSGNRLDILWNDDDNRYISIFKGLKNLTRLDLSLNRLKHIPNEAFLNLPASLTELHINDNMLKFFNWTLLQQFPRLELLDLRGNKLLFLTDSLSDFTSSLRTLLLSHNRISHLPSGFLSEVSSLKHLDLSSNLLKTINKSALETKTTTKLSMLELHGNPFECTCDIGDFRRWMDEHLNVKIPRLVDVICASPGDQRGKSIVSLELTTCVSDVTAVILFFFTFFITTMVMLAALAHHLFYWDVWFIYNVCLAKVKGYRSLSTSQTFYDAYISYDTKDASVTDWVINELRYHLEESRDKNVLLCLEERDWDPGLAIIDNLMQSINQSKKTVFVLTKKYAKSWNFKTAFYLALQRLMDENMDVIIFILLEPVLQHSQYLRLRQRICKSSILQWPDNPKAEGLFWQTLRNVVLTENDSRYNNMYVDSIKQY
Nature of the assay: hTLR8 cell functional assay (HEK-Blue hTLR8 SEAP reporter). To be noted: HEK293 cells stably overexpressing hTLR8, SEAP reporter; geometric mean when tested more than once. The class given is cell-based. On the procedure: as §1, §2, §3, §4, §5

For assay [3], the system named is superficial basal cell carcinomas. The settings on record: marketed 5% cream (Aldara); cited from earlier work.

Take `COCCc1nc2c(N)nc3ccccc3c2n1CC(C)(CO)CO` [Example 19, 2-((4-amino-2-(2-methoxyethyl)-1H-imidazo[4,5-c]quinolin-1-yl)methyl)-2-methylpropane-1,3-diol]: the EC50 was found to be 9 nM in assay [1] and 310 nM in assay [2].
For `CCCCCc1nc2c(N)nc3ccccc3c2n1CC(C)(CO)CO` [Example 12, 2-((4-amino-2-pentyl-1H-imidazo[4,5-c]quinolin-1-yl)methyl)-2-methylpropane-1,3-diol] the same measures were 9 nM and 191 nM.
For `COCCc1nc2c(N)nc3c(c2n1CC(C)(CO)CO)CCC3` [Example 17, 2-((4-amino-2-(2-methoxyethyl)-7,8-dihydrocyclopenta[b]imidazo[4,5-d]pyridin-1(6H)-yl)methyl)-2-methylpropane-1,3-diol] the same measures were 156 nM and 1060 nM.
In the same order, the values of `CCCCc1nc2c(N)nc(C)c(C)c2n1CC(C)(CO)CO` [Example 11, 2-((4-amino-2-butyl-6,7-dimethyl-1H-imidazo[4,5-c]pyridin-1-yl)methyl)-2-methylpropane-1,3-diol] are 13 nM and 160 nM.
`CCOCc1nc2c(N)nc3c(c2n1CC(C)(CO)CO)CCC3` [Example 4, 2-((4-amino-2-(ethoxymethyl)-7,8-dihydrocyclopenta[b]imidazo[4,5-d]pyridin-1(6H)-yl)methyl)-2-methylpropane-1,3-diol]: the EC50 in assay [1] turned out to be 54 nM; in assay [2], 400 nM.
In the same order, the values of `COCCc1nc2c(N)nc3c(c2n1CC(C)(CO)CO)CCCC3` [Example 18, 2-((4-amino-2-(2-methoxyethyl)-6,7,8,9-tetrahydro-1H-imidazo[4,5-c]quinolin-1-yl)methyl)-2-methylpropane-1,3-diol] are 16 nM and 119 nM.
For the molecule `CC(C)Cn1cnc2c(N)nc3ccccc3c21` [Imiquimod], the “5-year clearance of superficial basal cell carcinomas” value in assay [3] is recorded as “approximately 80%”.
Consider `CCOCc1nc2c(N)nc3c(c2n1CC(C)(CO)CO)CCCC3` [Example 5, 2-((4-amino-2-(ethoxymethyl)-6,7,8,9-tetrahydro-1H-imidazo[4,5-c]quinolin-1-yl)methyl)-2-methylpropane-1,3-diol], for which the EC50 in assay [1] was found to be 42 nM; in assay [2] it was 273 nM.
